Where a name gives a salt, the structure may show the parent alone.
Experiments:
[1] = system: SRS-A-like active substance; assay: A23187-induced pleurisy; inhibition of formation of SRS-A-like active substance in pleural exudate; format: in vivo, rat (Wistar-strain, male, 11 weeks old); conditions: Rattus norvegicus, po, p.o., 60 minutes before intrapleural A23187, rats, vs solvent control, read-out: Inhibitory activity on the formation of SRS-A-like active substance
Description: (1) Preparation of A23187 -induced pleurisy Under ether anaesthesia, 0.2 ml of 100 μM A23187 (prepared by adding injectable distilled water in a 2 mM A23187 ethanol solution) was administered intrapleurally to rats (Wistar-strain, male, 11 weeks old). Twenty minutes after the administration, the rats were exsanguinated and the pleural exudate was harvested. […] (2) Measurement of SRS-A-like active substance To the exudate obtained in (1) was added 4 times its volume of ice-cooled ethanol. They were well mixed, and then centrifuged. […] The solution was added to SEP-PAK® (C18) and SRS-A-like active substance was partially purified. […] The residue was dissolved in purified water in an amount corresponding to the amount of the exudate. The SRS-A-like active substance was assayed on the basis of contraction of the ileum of guinea pig (Hartley-strain, male, body weight 400-500 g) in the presence of atropine and Pyrilamine. The presence of SRS-A was confirmed by the fact that the contraction of the isolated ileum by the test solution was antagonized by FPL-55712 which is a specific antagonist for SRS-A. The results are shown in the following table. The activity of inhibiting the formation of an SRS-A-like active substance is indicated as the percent inhibition based on a control group to which only the solvent was administered.

SD-strain male rats = assay: Toxicity, oral administration, observation for 2 weeks; format: in vivo, rat (SD-strain; conditions: 5 g/kg, 10% gum arabic suspension, 5-membered groups
From the text: The test compound was suspended in a 10% gum arabic solution, and orally administered to SD-strain male rats (body weight 100-115 g) in 5-membered groups.

lipoxygenase = conditions: known from the prior art; cited from earlier work
cyclooxygenase = conditions: known from the prior art; cited from earlier work
SRS-A = assay: Contraction of isolated guinea pig ileum by the test solution (confirmation of SRS-A); parameters: species or system guinea pig (Hartley-strain, male); conditions: in the presence of atropine and Pyrilamine
Description: The SRS-A-like active substance was assayed on the basis of contraction of the ileum of guinea pig (Hartley-strain, male, body weight 400-500 g) in the presence of atropine and Pyrilamine. The presence of SRS-A was confirmed by the fact that the contraction of the isolated ileum by the test solution was antagonized by FPL-55712 which is a specific antagonist for SRS-A.

| SMILES | inhibition at 10 mg/kg [1] | other results |
| --- | --- | --- |
| Cc1cc(-c2[nH]c3ccc(OCc4ccccc4)cc3c2C)cc(C)c1O [Example 36, 5-benzyloxy-2-(4-hydroxy-3,5-dimethylphenyl)-3-methylindole] | 35.4% | – |
| Cc1cc(-c2[nH]c3c(C)cccc3c2C)cc(C)c1O [Example 16, 2-(4-Hydroxy-3,5-dimethylphenyl)-3,7-dimethylindole] | 37.5% | – |
| CCN(CC)CCOc1ccc2[nH]c(-c3cc(C)c(O)c(C)c3)c(C)c2c1 [Example 35, 5-(2-diethylaminoethoxy)-2-(4-hydroxy-3,5-dimethylphenyl)-3-methylindole] | 39.1% | – |
| Cc1cc(-c2[nH]c3ccc(OC(C)C)cc3c2C)cc(C)c1O [Example 9, 2-(4-Hydroxy-3,5-dimethylphenyl)-3-methyl-5-isopropoxyindole] | 58.4% | – |
| COc1ccc2[nH]c(-c3cc(C)c(O)c(C)c3)c(C)c2c1 [Example 1, 2-(4-hydroxy-3,5-dimethylphenyl)-5-methoxy-3-methylindole] | 66.2% | death (SD-strain male rats): No case of death was observed |
| CCc1cc(-c2[nH]c3ccc(OC)cc3c2C)cc(CC)c1O [Example 48, 2-(3,5-diethyl-4-hydroxyphenyl)-5-methoxy-3-methylindole] | 28.3% | – |
| CCCCCC#CCC#CCC#CCC#CCCCC(=O)O [5,8,11,14-eicosatetraynoic acid] | – | lipoxygenase inhibition (lipoxygenase): lipoxygenase inhibitors; cyclooxygenase inhibition (lack of specificity) (cyclooxygenase): lack specificity and inhibit not only lipoxygenase but also cyclooxygenase |
| CCc1c(-c2cc(C)c(O)c(C)c2)[nH]c2ccc(OC)cc12 [Example 45, 3-ethyl-2-(4-hydroxy-3,5-dimethylphenyl)-5-methoxyindole] | 52.7% | – |
| CCCOc1ccc2[nH]c(-c3cc(C)c(O)c(C)c3)c(C)c2c1 [Example 43, 2-(4-hydroxy-3,5-dimethylphenyl)-3-methyl-5-n-propoxyindole] | 46.2% | – |
| CCOc1ccc2[nH]c(-c3cc(C)c(O)c(C)c3)c(C)c2c1 [Example 8, 5-Ethoxy-2-(4-hydroxy-3,5-dimethylphenyl)-3-methylindole] | 28.7% | – |
| CCc1c(-c2cc(C)c(O)c(C)c2)[nH]c2ccccc12 [Example 44, 3-ethyl-2-(4-hydroxy-3,5-dimethylphenyl)indole] | 46.9% | inhibition at 30 mg/kg [1]: 87.2% |
| Cc1cc(-c2[nH]c3ccccc3c2C)cc(C)c1O [Example 30, 2-(4-hydroxy-3,5-dimethylphenyl)-3-methylindole] | 58% | inhibition at 30 mg/kg [1]: 90.2% |
| NC1=NN(c2cccc(C(F)(F)F)c2)CC1 [BW755C, 3-amino-1-(3-trifluoromethylphenyl)-2-pyrazoline] | – | lipoxygenase inhibition (lipoxygenase): lipoxygenase inhibitors; cyclooxygenase inhibition (lack of specificity) (cyclooxygenase): lack specificity and inhibit not only lipoxygenase but also cyclooxygenase |
| CC(=O)Oc1ccc2[nH]c(-c3cc(C)c(O)c(C)c3)c(C)c2c1 [Example 37] | 43.7% | – |
| CCc1cc(-c2[nH]c3ccccc3c2C)cc(CC)c1O [Example 46, 2-(3,5-diethyl-4-hydroxyphenyl)-3-methylindole] | 22.9% | inhibition at 30 mg/kg [1]: 74.2% |
| CSc1ccc2[nH]c(-c3cc(C)c(O)c(C)c3)c(C)c2c1 [Example 10, 2-(4-hydroxy-3,5-dimethylphenyl)-3-methyl-5-methylthioindole] | 41% | – |
| Cc1ccc2c(C)c(-c3cc(C)c(O)c(C)c3)[nH]c2c1 [Example 14, 2-(4-Hydroxy-3,5-dimethylphenyl)-3,6-dimethylindole] | 30.7% | – |
| COc1cc2[nH]c(-c3cc(C)c(O)c(C)c3)c(C)c2cc1OC [Example 24, 2-(4-Hydroxy-3,5-dimethylphenyl)-5,6-dimethoxy-3-methylindole] | 70.4% | – |
| CCN(CC)CCNc1ccc2[nH]c(-c3cc(C)c(O)c(C)c3)c(C)c2c1 [Example 38, 5-(2-diethylaminoethylamino)-2-(4-hydroxy-3,5-dimethylphenyl)-3-methylindole dihydrochloride] | 38.3% | – |
| CCc1cc(-c2[nH]c3ccccc3c2CC)cc(CC)c1O [Example 50, 3-ethyl-2-(3,5-diethyl-4-hydroxyphenyl)indole] | 21.5% | – |
| CCCc1c(OCC(O)COc2ccc3c(=O)cc(C(=O)O)oc3c2CCC)ccc(C(C)=O)c1O (centres unmarked) [FPL-55712] | – | antagonism of contraction of the isolated ileum (SRS-A): antagonized |
| Cc1cc(-c2[nH]c3ccc(N)cc3c2C)cc(C)c1O [Example 33, 5-amino-2-(4-hydroxy-3,5-dimethylphenyl)-3-methylindole] | 68.1% | – |
| Cc1ccc2[nH]c(-c3cc(C)c(O)c(C)c3)c(C)c2c1 [Example 5, 2-(4-Hydroxy-3,5-dimethylphenyl)-3,5-dimethylindole] | 54.7% | – |

Reference: patent publication US4695581A, “2-(3,5-dialkyl-4-hydroxyphenyl)indole derivatives” (Teikoku Hormone Mfg. Co., Ltd., priority 1984, dated 1987)
